Read-outs that look alike come from different tables or passages of the source.
Tested on: SU-DHL-4 cells
Experiment: Inhibitory effect on cell viability in SU-DHL-4 cell line (Test Example 1)
Type: cell-based, human
Conditions: SU-DHL-4 cells, 72 hours, Cell Counting Kit-8, concentration showing 90% inhibition of cell viability, read-out: SU-DHL-4 Cell Viability Inhibition Rate IC90
Procedure: SU-DHL-4 cells (Code No. ACC 495, Deutsche Sammlung von Mikroorganismen and Zellkulturen GmbH; DSMZ) were cultured at 37° C. using a carbon dioxide incubator (95% air, 5% CO2) in RPMI1640 medium (Code No. 11875-093, Thermo Fisher Scientific) in which inactivated fetal bovine serum (FBS: Code No. 10099-148, Thermo Fisher Scientific) in an amount to give a final concentration of 10 vol % and penicillin/streptomycin solution (PS: […] The cells were passaged twice a week at a volume of 20-40 mL so as to maintain a cell concentration of 1×10^6 cells/mL or less. […] After seeding, the cells were precultured at 37° C. in a carbon dioxide gas incubator for 18 to 25 hours. […] At this time, the final concentration of DMSO was adjusted to be 0.1 vol %. After adding the test compound, the cells were cultured at 37° C. in a carbon dioxide gas incubator for 72 hours. Next, 0.020 mL of Cell Counting Kit-8 (Code No. CK04, DOJINDO) solution diluted 2-fold or 4-fold with phosphate buffered saline (PBS) was added to each well. Color reaction was carried out in a carbon dioxide gas incubator at 37° C. for 2 to 3 hours, and the absorbance at a wavelength of 450 nm was measured using SpectraMax 340PC (Molecular Devices). […] Absorbance of a well containing test compound • B: Absorbance of a well without addition of cells • C: Absorbance of a well without addition of test compound

SMILES | IC90 | IC90 (Homo sapiens)
CCC(=O)N1c2ccccc2[C@H](Nc2ccc(C(=O)NCCCNC(=O)c3ccc(C4=N[C@@H](CC(=O)OCCO)c5nnc(C)n5-c5sc(C)c(C)c54)cc3)cc2)C[C@@H]1C [Compound 13g, 2-Hydroxyethyl 2-((S)-2,3,9-trimethyl-4-(4-((3-(4-(((2S,4R)-2-methyl-1-propionyl-1,2,3,4-tetrahydroquinolin-4-yl)amino)benzamide)propyl)carbamoyl)phenyl)-6H-thieno[3,2-f][1,2,4]triazolo[4,3-a][1,4]diazepin-6-yl)acetate] | 0.0017 µM | 
CCC(=O)N1c2ccccc2[C@H](Nc2ccc(NC(=O)N3CC(NC(=O)C4CCC(N[C@@H]5C[C@H](C)N(C(=O)CC)c6ccccc65)CC4)C3)cc2)C[C@@H]1C (stereo partly drawn) [Compound 7a, 3-((1R,4r)-4-(((2S,4R)-2-Methyl-1-propionyl-1,2,3,4-tetrahydroquinolin-4-yl)amino)cyclohexane-1-carboxamide)-N-(4-(((2S,4R)-2-methyl-1-propionyl-1,2,3,4-tetrahydroquinolin-4-yl)amino)phenyl)azetidine-1-carboxamide] | 0.0108 µM | 
CCC(=O)N1c2ccccc2[C@H](Nc2ccc(NC(=O)CNC(=S)OC3CCC(N[C@@H]4C[C@H](C)N(C(=O)CC)c5ccccc54)CC3)cc2)C[C@@H]1C (relative stereo) [Compound 7d, 0-((1R,4R)-4-(((2S*,4R*)-2-Methyl-1-propionyl-1,2,3,4-tetrahydroquinolin-4-yl)amino)cyclohexyl)(2-((4-(((2S,4R)-2-methyl-1-propionyl-1,2,3,4-tetrahydroquinolin-4-yl)amino)phenyl)amino)-2-oxoethyl)carbamothioate] | 0.0259 µM | 
CCC(=O)N1c2ccccc2[C@H](Nc2ccc(NC(=O)CCCC(=O)NC3CCCN(Cc4ccc(NS(=O)(=O)CC)cc4-c4cn(C)c(=O)cc4OC)C3)cc2)C[C@@H]1C (stereo partly drawn) [Compound 16f, N^1-(1-(4-(Ethylsulfonamide)-2-(4-methoxy-1-methyl-6-oxo-1,6-dihydropyridin-3-yl)benzyl)piperidin-3-yl)-N5-(4-(((2S,4R)-2-methyl-1-propionyl-1,2,3,4-tetrahydroquinolin-4-yl)amino)phenyl)glutaramide] | 0.0246 µM | 
CCC(=O)N1c2ccccc2[C@@H](Nc2ccc(-n3cc(CNC(=O)C4CCC(N[C@@H]5C[C@H](C)N(C(=O)CC)c6ccccc65)CC4)nn3)cn2)C[C@H]1C (relative stereo) [Compound 17h, (1R,4S)-4-(((2S,4R)-2-Methyl-1-propionyl-1,2,3,4-tetrahydroquinolin-4-yl)amino)-N-((1-(6-(((2R*,4S*)-2-methyl-1-propionyl-1,2,3,4-tetrahydroquinolin-4-yl)amino)pyridin-3-yl)-1H-1,2,3-triazol-4-yl)methyl)cyclohexane-1-carboxamide] | 0.0002 µM | 
CCC(=O)N1c2ccccc2[C@H](Nc2ccc(NC(=O)CCCC(=O)NC3CCN(Cc4ccccc4-c4cn(C)c(=O)cc4OC)CC3)cc2)C[C@@H]1C [Compound 16h, N^1-(1-(2-(4-Methoxy-1-methyl-6-oxo-1,6-dihydropyridin-3-yl)benzyl)piperidin-4-yl)-N5-(4-(((2S,4R)-2-methyl-1-propionyl-1,2,3,4-tetrahydroquinolin-4-yl)amino)phenyl)glutaramide] |  | 0.0684 µM
CCC(=O)N1c2ccccc2[C@H](NC2CCC(NC(=O)C#CCNC(=O)c3ccc(C4=NCc5nnc(C)n5-c5sc(C)c(C)c54)cc3)CC2)C[C@@H]1C (relative stereo) [Compound 14c, N-(4-(((1R,4r)-4-(((2S*,4R*)-2-Methyl-1-propionyl-1,2,3,4-tetrahydroquinolin-4-yl)amino)cyclohexyl)amino)-4-oxobut-2-yn-1-yl)-4-(2,3,9-trimethyl-6H-thieno[3,2-f][1,2,4]triazolo[4,3-a][1,4]diazepin-4-yl)benzamide] | 0.00034 µM | 
CCC(=O)N1c2ccccc2[C@H](Nc2ccc(-c3cnn(CCNC(=O)C4CCN(Cc5cc(O)cc(-c6c(C)noc6C)c5)CC4)c3)cc2)C[C@@H]1C [Compound 17i, 1-(3-(3,5-Dimethylisoxazol-4-yl)-5-hydroxybenzyl)-N-(2-(4-(4-(((2S,4R)-2-methyl-1-propionyl-1,2,3,4-tetrahydroquinolin-4-yl)amino)phenyl)-1H-pyrazol-1-yl)ethyl)piperidine-4-carboxamide] |  | 0.00145 µM
CCC(=O)N1c2ccccc2[C@H](Nc2ccc(C(=O)NCCCNC(=O)c3ccc(C4=N[C@@H](CC(=O)OCCN(C)C)c5nnc(C)n5-c5sc(C)c(C)c54)cc3)cc2)C[C@@H]1C [Compound 13c, 2-(Dimethylamino)ethyl 2-((S)-2,3,9-trimethyl-4-(4-((3-(4-(((2S,4R)-2-methyl-1-propionyl-1,2,3,4-tetrahydroquinolin-4-yl)amino)benzamide)propyl)carbamoyl)phenyl)-6H-thieno[3,2-f][1,2,4]triazolo[4,3-a][1,4]diazepin-6-yl)acetate] | 0.00736 µM | 
CCC(=O)N1c2ccccc2[C@H](Nc2ccc(C(=O)N3C[C@H]4C[C@@H]3CN4C(=O)[C@H]3CC[C@H](N[C@@H]4C[C@H](C)N(C(=O)CC)c5ccccc54)CC3)cc2)C[C@@H]1C [Compound 8p, 1-((2S,4R)-2-Methyl-4-(((1R,4R)-4-((1R,4R)-5-(4-(((2S,4R)-2-methyl-1-propionyl-1,2,3,4-tetrahydroquinolin-4-yl)amino)benzoyl)-2,5-diazabicyclo[2.2.1]heptane-2-carbonyl)cyclohexyl)amino)-3,4-dihydroquinolin-1(2H)-yl)propan-1-one] | 0.015 µM | 
CCC(=O)N1c2ccccc2[C@H](Nc2ccc(-c3cnn(C4CCN(C(=O)C5CCC(N[C@@H]6C[C@H](C)N(C(=O)CC)c7ccccc76)CC5)CC4)c3)cc2)C[C@@H]1C (relative stereo) [Compound 8d, 1-((2S*,4R*)-2-Methyl-4-(((1r,4R)-4-(4-(4-(4-(((2S,4R)-2-methyl-1-propionyl-1,2,3,4-tetrahydroquinolin-4-yl)amino)phenyl)-1H-pyrazol-1-yl)piperidine-1-carbonyl)cyclohexyl)amino)-3,4-dihydroquinolin-1(2H)-yl)propan-1-one] | 0.00014 µM | 
CCC(=O)N1c2ccccc2[C@H](Nc2ccc(-n3cc(CNC(=O)c4cccc(Oc5ccc(NS(=O)(=O)CC)cc5-c5cn(C)c(=O)cc5OC)c4)nn3)cc2)C[C@@H]1C [Compound 16n, 3-(4-(Ethylsulfonamide)-2-(4-methoxy-1-methyl-6-oxo-1,6-dihydropyridin-3-yl)phenoxy)-N-((1-(4-(((2S,4R)-2-methyl-1-propionyl-1,2,3,4-tetrahydroquinolin-4-yl)amino)phenyl)-1H-1,2,3-triazol-4-yl)methyl)benzamide] | 0.00048 µM | 
CCC(=O)N1c2ccccc2[C@H](Nc2ccc(NC(=O)CNC(=O)O[C@H]3CC[C@H](N[C@@H]4C[C@H](C)N(C(=O)CC)c5ccccc54)CC3)cc2)C[C@@H]1C (relative stereo) [Compound 7e, (1R,4R)-4-(((2S*,4R*)-2-Methyl-1-propionyl-1,2,3,4-tetrahydroquinolin-4-yl)amino)cyclohexyl (2-((4-(((2S,4R)-2-methyl-1-propionyl-1,2,3,4-tetrahydroquinolin-4-yl)amino)phenyl)amino)-2-oxoethyl)carbamate] | 0.0204 µM | 
CCC(=O)N1c2ccccc2[C@H](Nc2ccc(NC(=O)C3CCN(C(=O)C4CCC(N[C@@H]5C[C@H](C)N(C(=O)CC)c6ccccc65)CC4)CC3)cc2)C[C@@H]1C (relative stereo) [Compound 8q, 1-((1R,4r)-4-(((2S*,4R*)-2-Methyl-1-propionyl-1,2,3,4-tetrahydroquinolin-4-yl)amino)cyclohexane-1-carbonyl)-N-(4-(((2S,4R)-2-methyl-1-propionyl-1,2,3,4-tetrahydroquinolin-4-yl)amino)phenyl)piperidine-4-carboxamide] | 0.019 µM | 
CCC(=O)N1c2ccccc2[C@H](Nc2ccc(NC(=O)CCCC(=O)NC3CCC(Oc4ccc(NS(=O)(=O)CC)cc4-c4cn(C)c(=O)cc4OC)CC3)cc2)C[C@@H]1C (stereo partly drawn) [Compound 16l, N^1-((1r,4r)-4-(4-(Ethylsulfonamide)-2-(4-methoxy-1-methyl-6-oxo-1,6-dihydropyridin-3-yl)phenoxy)cyclohexyl)-N5-(4-(((2S,4R)-2-methyl-1-propionyl-1,2,3,4-tetrahydroquinolin-4-yl)amino)phenyl)glutaramide] | 0.0898 µM | 
CCC(=O)N1c2ccccc2[C@H](Nc2ccc(NC(=O)CCCC(=O)Nc3ccc(OCCN4CCN(C)C(=O)[C@H]4C)cc3)cc2)C[C@@H]1C [Compound 16e, N^1-(4-(2-((R)-2,4-Dimethyl-3-oxopiperazin-1-yl)ethoxy)phenyl)-N5-(4-(((2S,4R)-2-methyl-1-propionyl-1,2,3,4-tetrahydroquinolin-4-yl)amino)phenyl)glutaramide] |  | 0.00597 µM
CCC(=O)N1c2ccccc2[C@H](Nc2ccc(C(=O)N[C@H]3C[C@H](NC(=O)c4ccc(N[C@@H]5C[C@H](C)N(C(=O)CC)c6ccccc65)cc4)C3)cc2)C[C@@H]1C [Compound 1j, N,N′-[(1r,3r)-Cyclobutane-1,3-diyl]bis(4-{[(2S,4R)-2-methyl-1-propionyl-1,2,3,4-tetrahydroquinolin-4-yl]amino}benzamide)] | 0.0331 µM | 

— patent US20220378923A1, “BET DEGRADER” (KYOWA KIRIN CO., LTD., priority 2019, published 2022)
